Patent publication US20060069076A1, “LXR/RXR-related methods and compositions” (priority 2004, published 2006)

Columns and labels:
Assay type in all cases: cell-based, mouse
[1] = test system: Aβ secretion from Neuro2a-APPSw cells; test: Secreted Aβ from Neuro2a-APPSw cells after LXR activation (immunoprecipitation and immunoblotting)
Procedure: Neuro2a-APPSw cells were treated with LXR activators (TO or 22(R)-hydroxycholesterol) and in some cases also with RXR activator (9-cis-retinoic acid). Secreted Aβ (sAβ) was detected in medium by immunoprecipitation and immunoblotting. Cellular APP (cAPP) levels were measured by immunoblotting cell lysates. Western blots were scanned and quantified by ImageQuant. The bar graphs show the combined results (means±S.E.) from at least three independent experiments. A, cells were treated with increasing amounts of TO. B, cells were treated with mock transfection (control) or 1 μM TO, μM 9-cis-RA. C, cells were treated with mock transfection or 5 μM 22(R)-hydroxycholesterol (22(R)OHchol), 10 μM 9-cis-RA. #, p<0.05 compared with control. *, p<0.01 compared with control. […]
In experiments with LXR activation, the cells were first induced with activators for 24 h in DMEM, 5% lipoprotein-deficient serum. […] The immunoblots were developed using the ECL system (Pierce) scanned and quantified by ImageQuant (Molecular Dynamics). Quantitation of Aβ40 and Aβ42 was performed using a commercial Aβ enzyme-linked immunosorbent assay kit. […]
The cells were treated with increasing doses of the synthetic LXRα/β activator TO901317 (“TO”), and Aβ secretion into medium was measured by immunoprecipitation and Western blotting (FIG. 1A).

[2] = test system: cellular cholesterol efflux, Neuro2a cells; test: Cellular cholesterol efflux from ABCA1-expressing Neuro2a cells; conditions: expression of ABCA1 and addition of apoA-I (10 μg/ml, 6 h)
Procedure: The efflux experiments were performed as described (13). Briefly, Neuro2a cells were labeled with 1 μCi/ml [1.2-^3H(N)]-cholesterol (PerkinElmer Life Sciences) in DMEM containing 5 mM methyl-β-cyclodextrin:cholesterol at a molar ratio of 8:1 for 15 min at 37° C. After washing, the cells were equilibrated in DMEM, 0.2% bovine serum albumin for 30 min and then used for efflux experiments. […] The cells were lysed in 0.1 M sodium hydroxide, 0.1% SDS, and radioactivity was determined by liquid scintillation counting. Efflux was expressed as the percentage of radioactivity in the medium relative to the total radioactivity in cells and medium.
(§1) Cellular cholesterol mass was also measured.

[3] = test system: Aβ secretion from Neuro2a-APPSw cells; test: Aβ secretion from ABCA1- or mock-transfected Neuro2a-APPSw cells with added apolipoproteins; conditions: apolipoprotein added for 6 h, compared with ABCA1 without apolipoprotein
Procedure: FIGS. 3A-3C: ABCA1 overexpression inhibits Aβ secretion.
FIG. 4: The effect of apoE isoforms on Aβ secretion.
as §1
Because apoE is a major apolipoprotein in the central nervous system and the apoE4 isoform is associated with increased risk of AD (19, 20), the effects of apoE on Aβ formation was also examined. […] Again, the major effect was attributable to ABCA1 expression alone.

[4] = test system: efflux of cellular phospholipids, Neuro2a cells; test: Cellular phospholipid efflux from ABCA1-expressing Neuro2a cells; conditions: expression of ABCA1 and addition of apoA-I
[5] = test system: Aβ generation from C99 in Neuro2a cells; test: γ-Secretase cleavage of C99 Myc in Neuro2a cells transfected with ABCA1; conditions: Neuro2a cells transfected with C99 Myc and ABCA1; apoA-I added; data not shown
Procedure: FIGS. 5A-5B: ABCA1 overexpression decreases β-cleavage of APPSw and γ-cleavage of the 99-amino acid C-terminal fragment of APP. A, Neuro2a-APPSw cells were transfected with either empty vector or vector containing ABCA1 cDNA. The β-cleavage product C99 was detected by immunoprecipitation of cell lysates with antibody 4G8 followed by immunoblotting with 6E10. Cellular APP (cAPP) level was measured by immunoblotting cell lysates. The data are the means±S.E. for five separate experiments; *, p<0.01 compared with mock (mk) transfected. B, Neuro2a cells were transfected with vector containing either C99 Myc alone or C99 Myc with ABCA1. Aβ was detected as in FIG. 3. Cellular C99 was detected by immunoprecipitation with anti-Myc antibody followed by Western blot with 6E10. The data are shown for three separate experiments conducted in duplicate. #, p<0.05 compared with C99 transfected alone.
Both β and γ-cleavage of APP are required for the generation of Aβ. A series of experiments were carried out to determine which step is affected by ABCA1 overexpression. To measure β-cleavage, the β-secretase cleavage product was immunoprecipitated (C99 ) from cell lysates. There was an 85% decrease of cellular C99 in Neuro2a-APPSw cells transiently transfected with ABCA1 compared with mock transfected control (FIG. 5A). γ-Secretase mediates the final step in Aβ generation (1). […]

Compound | reduction in secretion of Aβ into medium ([1]; 1 μM TO, 24 h induction, 4 h medium, immunoprecipitation and Western blotting (FIG. 1A)) | amount of soluble form of APP (APPsα) in medium ([1]; administration of the LXR activator, data not shown) | increase in cellular cholesterol efflux [2] | further change in Aβ on adding apolipoprotein to ABCA1-expressing cells [3] | increase in efflux of cellular phospholipids [4] | further decrease in Aβ generation from C99 [5]
O=S(=O)(c1ccccc1)N(CC(F)(F)F)c1ccc(C(O)(C(F)(F)F)C(F)(F)F)cc1 [TO901317] | ~50% | not significantly changed |  |  |  | 
apoA-I: purified human apolipoprotein A-I, from Biodesign |  |  | 1.0±0.1 % of total cellular cholesterol | only a slight further decrease | 1.9 % of total cellular choline-labeled lipids | did not provide a further decrease
